ChEMBL document CHEMBL4610081, “Anti-inflammatory Metabolites from Chaetomium nigricolor” (J Nat Prod, 2020)
Calls of active or inactive are those of the source. The calls are words filed in the database; no cut-off is given here.

Test system: RAW264.7
Experiment: Antiinflammatory activity against mouse RAW264.7 cells assessed as inhibition of LPS-induced NO production preincubated for 3 hrs followed by LPS-stimulation and measured after 24 hrs by Griess reagent based assay
Format: functional, cell-based

Compound	Activity
CC(=O)OCc1ccc(C(=O)O)o1	inactive
COC(=O)/C=C/C(=O)O	inactive
COC(=O)CCC(=O)OCc1ccc(C(=O)O)o1	inactive
COc1cc(C)c2c(OC)cc(=O)oc2c1-c1c(OC)cc(C)c2c(OC)cc(=O)oc12	inactive
COc1cc(OC)c2c(c1)cc(O)c1c(=O)cc(C)oc12	inactive
